Read-outs that look alike come from different tables or passages of the source.
Legend:
ER = target: T1, ER (Homo sapiens, UniProt P03372); assay: Degradation activities on ER (ELISA) in T47D breast cancer cells; type: cell-based; conditions: T47D cells, 24 h, ELISA; for DC50: concentration required to degrade 50% of the target protein; for Dmax: maximum percentage of target protein degraded
T1 construct: T47D breast cancer cells were subcultured in cell culture medium; endogenous in cells; host or cells: T47D breast cancer cells
T1 sequence (P03372 1-595): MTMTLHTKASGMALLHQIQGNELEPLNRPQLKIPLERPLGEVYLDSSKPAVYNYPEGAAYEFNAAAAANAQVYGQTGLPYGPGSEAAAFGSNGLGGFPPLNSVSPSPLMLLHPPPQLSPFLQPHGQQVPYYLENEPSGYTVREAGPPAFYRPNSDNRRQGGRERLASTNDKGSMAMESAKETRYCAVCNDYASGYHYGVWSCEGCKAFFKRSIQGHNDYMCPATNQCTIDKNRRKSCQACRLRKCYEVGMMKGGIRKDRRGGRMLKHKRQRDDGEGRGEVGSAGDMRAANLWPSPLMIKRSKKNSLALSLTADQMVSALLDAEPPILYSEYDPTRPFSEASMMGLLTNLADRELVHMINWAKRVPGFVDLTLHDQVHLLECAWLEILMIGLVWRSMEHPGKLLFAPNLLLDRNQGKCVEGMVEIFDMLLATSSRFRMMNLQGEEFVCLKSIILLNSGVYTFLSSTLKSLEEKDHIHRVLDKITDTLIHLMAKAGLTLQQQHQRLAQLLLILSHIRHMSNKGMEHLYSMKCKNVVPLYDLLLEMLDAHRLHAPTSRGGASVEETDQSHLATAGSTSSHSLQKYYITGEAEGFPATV
Experimental: T47D breast cancer cells were subcultured in cell culture medium, and then the cells in good growth condition were seeded into 96-well plates at 80 µL/well, with 2.5×10^4 cells per well. The cells were incubated in a 37° C., 5% CO2 incubator for 3 days. The drug was prepared into a 10 mM stock solution with dimethyl sulfoxide (DMSO). Prior to use, the stock solution was diluted with cell culture medium to obtain six final concentrations (100 nM, 25 nM, 6.25 nM, 1.56 nM, 0.39 nM, and […]), and gently mixed. Additionally, negative control wells (only containing culture medium) and positive control wells (only containing cells and DMSO) were included. After the cells were incubated in the incubator for 24 h, the cells were rinsed once with ice-cold 1×PBS. […] The plate was sealed with plastic film, and incubated in a 37° C. incubator for 2 h. The film was removed. 200 μL of 1× washing buffer was added to each well, and then the plate was shaken for 5 min. The washing buffer was discarded, and the plate was pat-dried. The plate was washed four times. 100 μL of freshly prepared detection antibody (green) was added to each well of the ELISA plate. The plate was sealed with plastic film, and then incubated in a 37° C. incubator for 1 h. The film was removed, and the detection antibody was discarded. The plate was pat-dried. 200 μL of 1× washing buffer was added to each well, and then the plate was shaken for 5 min. The washing buffer was discarded, and the plate was pat-dried. The plate was washed four times. 100 μL of freshly prepared HRP-labeled secondary antibody (red) was added to each well of the ELISA plate. The plate was sealed with plastic film, and incubated in a 37° C. incubator for 30 min. The film was removed, the secondary antibody was discarded, and the plate was pat-dried, followed by adding 200 μL of 1× washing buffer to each well. The plate was shaken for 5 min, and the washing buffer was discarded before pat-drying the plate. The plate was washed four times. 100 μl of TMB substrate was added to each well of the ELISA plate, followed by incubating in a 37° C. incubator for 5 min. 100 μL of STOP solution was added to each well of the ELISA plate, and the plate was gently shaken for a few seconds. The bottom of each well was wiped with lint-free cloth. Within 30 min after adding the STOP solution, the absorbance was read at 450 nm. […] The data were analyzed using the Dose-response equation in GraphPad Prism8 software to obtain the DC50 and Dmax values, and both of them are important indicators for measuring the degradation activities of compounds on target proteins. […] The Dmax value represents the maximum percentage of target protein that can be degraded by the compound.

[1] = test system: MCF-7 breast cancer cells; assay: Inhibition of proliferation of MCF-7 breast cancer cells (agarose culture, CellTiter-Glo 3D); type: cell-based; conditions: MCF-7 cells, 15 days of cultivation, read-out: IC50
Experimental: After 1.6% agarose and 0.7% agarose were sterilized at high temperature, they were cooled to around 50° C., and placed in a 42° C. water bath for later use. MCF-7 breast cancer cells were subcultured in complete cell culture medium, and cells in good growth condition were digested and counted for future use. 50 µL of 1.6% agarose mixed with 2× culture medium at a ratio of 1:1 was spread into the bottom of 96-well plate, and allowed to cool and solidify. 0.7% agarose was mixed with diluted cell suspension in a ratio of 1:1, and then 50 µL of the mixture of gel and cells was added to each well, with 2000 cells for each well; the mixture was allowed to cool and solidify at room temperature. 50 μL of culture medium was added to the plate containing cells, and the plate was placed in a 37° C., 5% CO2 incubator and cultured for 24 h. The drug was prepared into 10 mM stock solution with dimethyl sulfoxide (DMSO). The stock solution was diluted in a ratio of 1:3, to obtain 9 concentration gradients. Then, each concentration of compound solution was further diluted with culture medium in 1:250 (to ensure a DMSO concentration of 0.1% in the culture system). Two replicate wells was set for each concentration. 50 μL of the diluted compound solution was added to the cell culture wells (with final concentrations of 10 μM, 3.3 μM, 1.1 μM, 0.37 μM . . . ). The plate was gently shaken for mixing. Additionally, 3 negative control wells only containing cells and 3 blank control wells only containing culture medium were set up (each of the 6 wells was added with 50 μL of DMSO diluted with culture medium in a ration of 1:250). After 15 days of cultivation, the cell plates and CellTiter-Glo 3D Cell Viability were taken out and equilibrated to room temperature in advance. 80 μL of culture medium were aspirated and discarded from the cell plate, and 120 µL of CellTiter-Glo 3D Cell Viability solution was added to each well. The plates were centrifuged at 1200 rpm/min for 5 min, and then placed in the dark and kept for 25 min. The […] were measured using a multi-function microplate reader. The data were analyzed using the Dose-response-inhibition equation in GraphPad Prism8 software, and the IC50 values were obtained, as shown in Table 3.

DC50 (ER)	Dmax (ER; read-out: Dmax)	IC50 ([1]; Homo sapiens, MCF7, 360 h)	Structure (SMILES)	Dmax (ER)	IC50 [1]
< 10 nM	> 75%	< 10 nM	O=C1CCC(N2Cc3cc(N4CCC(N5CC6(CCN(c7ccc([C@@H]8c9ccc(O)cc9OC[C@@H]8c8ccccc8F)cc7)CC6)C5)CC4)ccc3C2=O)C(=O)N1 (stereo partly drawn) [Example 14, 3-(5-(4-(7-(4-((3S, 4R)-3-(2-fluorophenyl)-7-hydroxychroman-4-yl)phenyl)-2,7-diazaspiro[3.5]nonane-2-yl)piperidin-1-yl)-1-oxoisoinodolin-2-yl)pyridine-2,6-dione]	–	–
–	–	11 to 50 nM	O=C1CCC(N2Cc3cc(N4CC5(CCN(CC6CCN(c7ccc([C@@H]8c9ccc(B(O)O)cc9OC[C@@H]8c8ccccc8F)cc7)CC6)CC5)C4)ccc3C2=O)C(=O)N1 (stereo partly drawn) [Example 101, (cis-4-(4-(4-((2-(2-(2,6-dioxopiperidin-3-yl)-1-oxoisoinodolin-5-yl)-2,7-diazaspiro[3.5]nonan-7-yl)methyl)piperidin-1-yl)phenyl)-3-(2-fluorophenyl)pyran-7-yl)boric acid]	–	–
< 10 nM	50 to 75%	11 to 50 nM	CC(C)C[C@H]1COc2cc(O)ccc2[C@H]1c1cc(F)c(N2CCC(CN3CCC4(CC3)CN(c3ccc5c(c3)CN(C3CCC(=O)NC3=O)C5=O)C4)CC2)c(F)c1 (stereo partly drawn) [Example 17, 3-(5-(7-((1-(2,6-difluoro-4-(cis-7-hydroxyl-3-isobutylchroman-4-yl)phenyl)piperidin-4-yl)methyl)-2,7-diazaspiro[3.5]nonane-2-yl)-1-oxoisoinodolin-2-yl)piperidin-2,6-dione]	–	–
–	–	> 50 nM	O=C1CCC(NC(=O)c2ccc(N3CC4(CCN(CC5CCN(c6ccc([C@@H]7c8ccc(O)cc8OC[C@@H]7c7ccccc7F)cc6)CC5)CC4)C3)cc2F)C(=O)N1 (relative stereo) [Example 103, N-(2,6-dioxopiperidin-3-yl)-2-fluoro-4-(7-((1-(4-(cis-3-(2-fluorophenyl)-7-hydroxychroman-4-yl)phenyl)piperidin-4-yl)methyl)-2,7-diazaspiro[3.5]nonane-2-yl)benzamide]	–	–
> 100 nM	< 50%	> 50 nM	O=C1CC[C@@H](N2Cc3cc(N4CC5(CCN(CC6CCN(c7c(F)cc([C@@H]8c9ccc(O)cc9OC[C@@H]8c8c(F)cccc8F)cc7F)CC6)CC5)C4)ccc3C2=O)C(=O)N1 [Example 44]	–	–
> 100 nM	< 50%	> 50 nM	O=C1CC[C@@H](N2Cc3cc(N4CC5(CCN(CC6CCN(c7ccc([C@@H]8c9ccc(O)cc9OC[C@@H]8c8c(F)cccc8F)cc7F)CC6)CC5)C4)ccc3C2=O)C(=O)N1 [Example 74, (R)-3-(5-(7-((1-(4-((3S,4R)-3-(2,6-difluorophenyl)-7-hydroxychroman-4-yl)-2-fluorophenyl)piperidin-4-yl)methyl)-2,7-diazaspiro[3.5]nonane-2-yl)-1-oxoisoinodolin-2-yl)piperidin-2,6-dione]	–	–
< 10 nM	50 to 75%	< 10 nM	O=C1CCC(N2Cc3cc(N4CC5(CCN(CC6CCN(c7ccc([C@@H]8c9ccc(O)cc9OC[C@@H]8c8cccc(F)c8F)cc7F)CC6)CC5)C4)ccc3C2=O)C(=O)N1 (stereo partly drawn) [Example 16, 3-(5-(7-((1-(4-((3S, 4R)-3-(2,3-difluorophenyl)-7-hydroxychroman-4-yl)-2-fluorophenyl)piperidin-4-yl)methyl)-2,7-diazaspiro[3.5]nonane-2-yl)-1-oxoisoinodolin-2-yl)piperidin-2,6-dione]	–	–
–	–	< 10 nM	O=C1CC[C@H](N2Cc3cc(N4CC5(CCN(CC6CCN(c7ccc([C@@H]8c9ccc(O)cc9OC[C@@H]8c8c(F)cccc8F)cc7)CC6)CC5)C4)ccc3C2=O)C(=O)N1 [Example 78, (S)-3-(6-(7-((1-(4-((3S,4R)-3-(2,6-difluorophenyl)-7-hydroxychroman-4-yl)phenyl)piperidin-4-yl)methyl)-2,7-diazaspiro[3.5]nonane-2-yl)-1-oxoisoinodolin-2-yl)piperidin-2,6-dione]	–	–
–	–	11 to 50 nM	[2H]C1(N2Cc3cc(N4CC5(CCN(CC6CCN(c7ccc([C@@H]8c9ccc(O)cc9OC[C@@H]8c8c(F)cccc8F)cc7F)CC6)CC5)C4)ccc3C2=O)CCC(=O)NC1=O (stereo partly drawn) [Example 93, 3-deutero-3-(5-(7-((1-(4-((3S,4R)-3-(2,6-difluorophenyl)-7-hydroxychroman-4-yl)-2-fluorophenyl)piperidin-4-yl)methyl)-2,7-diazaspiro[3.5]nonane-2-yl)-1-oxoisoinodolin-2-yl)piperidin-2,6-dione]	–	–
–	–	> 50 nM	O=C1CCC(N2Cc3cc(N4CC5(CCN(CC6CCN(c7ccc([C@@H]8c9ccc(C(=O)O)cc9OC[C@@H]8c8ccccc8F)cc7)CC6)CC5)C4)ccc3C2=O)C(=O)N1 (stereo partly drawn) [Example 102, cis-4-(4-(4-((2-(2-(2,6-dioxopiperidin-3-yl)-1-oxoisoinodolin-5-yl)-2,7-diazaspiro[3.5]nonan-7-yl)methyl)piperidin-1-yl)phenyl)-3-(2-fluorophenyl)chroman-7-formic acid]	–	–

Structure (SMILES)	DC50 (ER)	Dmax (ER; read-out: Dmax)	IC50 ([1]; Homo sapiens, MCF7, 360 h)	Dmax (ER)	IC50 [1]
O=C1CCC(N2Cc3cc(N4CC5(CCN(CC6CCN(c7ccc([C@H]8c9ccc(O)cc9OC[C@H]8c8ccccc8F)cc7F)CC6)CC5)C4)ccc3C2=O)C(=O)N1 (relative stereo) [Example 87, 3-(5-(7-((1-(2-fluoro-4-(cis-3-(2-fluorophenyl)-7-hydroxybenzopyran-4-yl)phenyl)piperidin-4-yl)methyl)-2,7-diazaspiro[3.5]nonane-2-yl)-1-oxoisoinodolin-2-yl)piperidin-2,6-dione]	< 10 nM	–	–	B (B: 75-50%)	< 10 nM

Source: patent publication US20260258039A1, “AROMATIC COMPOUND, METHOD FOR PREPARING SAME, AND USE THEREOF IN PREPARATION OF ESTROGEN RECEPTOR DEGRADER” (Hinova Pharmaceuticals Inc., priority 2022, published 2026)
